Tests used:
Plasmopara viticola = assay: Antisporulant activity against vine downy mildew (PVA); type: in vivo; conditions: vine leaves, antisporulant foliar spray, 600 ppm, 750 l/ha
How it was run: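 Cabernet Sauvignon vines (~8 cm) inoculated on lower leaf surfaces with 5×10^4 zoosporangia/ml, held 24 h at 21° C high humidity then 24 h glasshouse. Infected leaves sprayed underside with 600 ppm compound in 1:1 water/acetone, 0.04% Tween 20, 750 l/ha; 96 h glasshouse, 24 h humidity. Sporulating leaf area rated versus control.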

Alternaria solani = assay: Activity against tomato early blight (AS); type: in vivo; conditions: Table VI; tomato seedlings, contact prophylactic foliar spray, 4 days
How it was run: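 Plants were challenged with A. solani conidia (10^4 spores/ml) 24 h after a protective foliar spray of compound in 50:50 acetone/water plus 0.04% Tween 20. Held humid at 21° C for 4 days, then percent leaf area with lesions was scored as a rating relative to controls.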

Botrytis cinerea = assay: Direct protectant activity against broad bean grey mould (BCB); type: in vivo; conditions: direct protectant foliar spray, 600 ppm, 4 days
How it was run: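 Protectant foliar test: lesion coverage assessed 4 days after inoculation and rated relative to untreated or diluent-sprayed plants. Compound applied at 600 ppm to cv The Sutton leaves 24 h before 10^6 conidia/ml suspension; incubation at 22 °C in high humidity.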

Leptosphaeria nodorum = assay: Activity against wheat leafspot (LN); type: in vivo; conditions: direct therapeutic foliar spray, 600 ppm, 6-8 days
How it was run: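 Therapeutic foliar spray: compound at 600 ppm applied to single-leaf wheat (cv Norman) 24 h after inoculation with 1.5×10^6 conidia/ml. Disease control scored after 6-8 days at 22° C and 70% humidity as lesions per leaf versus untreated or diluent-sprayed controls.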

[1] = test system: Erysiphe graminis f.sp. hordei; assay: Activity against barley powdery mildew, direct therapeutic (EGT); type: in vivo; conditions: direct therapeutic foliar spray, 600 ppm, up to 7 days
How it was run: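 A curative spray at 600 ppm was applied to single-leaf Golden Promise barley inoculated with powdery mildew conidia the previous day. After up to 7 days at 18 °C and 40% humidity, disease control was rated from percent leaf area sporulating relative to untreated or diluent-sprayed controls.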

[2] = test system: Erysiphe graminis f.sp. hordei; assay: Direct protectant activity against barley powdery mildew (EGP); type: in vivo; conditions: direct protectant foliar spray, 8 days
How it was run: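 Rating reflects percentage of leaf area with sporulation compared with untreated or diluent-sprayed controls. Protectant spray was applied to single-leaf barley (cv Golden Promise) 24 h before conidia inoculation. Plants were kept at 18 °C and 40% RH throughout, with 8 days of disease development.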

Phytophthora infestans = type: in vivo; conditions: tomato, direct protectant foliar spray
[3] = test system: Pseudocercosporella herpotrichoides; assay: Activity against wheat eyespot in-vitro (PHI); type: cell-based; conditions: 10 ppm, 10 days, 20° C., mycelial growth
How it was run: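 Mycelial growth was scored after 10 days at 20 °C against untreated or diluent controls. The broth was half-strength potato dextrose, holding 10 ppm test compound (from acetone) and 5×10^4 fragments/ml of the eyespot fungus.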

Rhizoctonia solani = assay: Activity against Rhizoctonia in-vitro (RSI); type: cell-based; conditions: 10 ppm, 10 days, 20° C., mycelial growth
How it was run: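 Compound at a final 10 ppm (acetone vehicle) in half-strength PDB, inoculated with 5×10^4 fragments/ml of shaken-culture R. solani mycelium. After incubation at 20° C for 10 days, growth scored as a rating versus untreated or diluent-treated controls.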

Venturia inaequalis = assay: Activity against apple scab in-vitro (VII); type: cell-based; conditions: 10 ppm, 10 days, 20° C., mycelial growth
How it was run: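 V. inaequalis propagules (5×10^4/ml, malt agar-grown) were exposed in half-strength PDB to 10 ppm final test compound delivered in acetone. Growth was scored after incubation for 10 days at 20° C, as a rating relative to untreated or diluent-sprayed controls.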

Pyricularia oryzae = type: in vivo; conditions: rice seedlings, direct therapeutic foliar spray, 600 ppm, 4-5 days

Structure (SMILES)	disease control rating PVA (Plasmopara viticola)	disease control rating AS (Alternaria solani)	disease control rating BCB (Botrytis cinerea)	disease control rating LN (Leptosphaeria nodorum)	disease control rating EGT [1]	disease control rating EGP [2]	disease control rating PIP (Phytophthora infestans)	disease control rating PHI [3]	disease control rating RSI (Rhizoctonia solani)	disease control rating VII (Venturia inaequalis)	disease control rating PO (Pyricularia oryzae)
C1CCN(C2COC3(CCCCC3)C2)CC1 (centres unmarked) [Compound 35]	0 (less than 50% disease control)	0 (less than 50% disease control)	0 (less than 50% disease control)	0 (less than 50% disease control)	0 (less than 50% disease control)	0 (less than 50% disease control)	0 (less than 50% disease control)	0 (less than 50% disease control)	0 (less than 50% disease control)	0 (less than 50% disease control)	0 (less than 50% disease control)
CC1CN(C2COC3(CCCCC3)C2)CC(C)O1 (centres unmarked) [Compound 36]	0 (less than 50% disease control)	0 (less than 50% disease control)	0 (less than 50% disease control)	0 (less than 50% disease control)	2 (greater than 80% disease control)	2 (greater than 80% disease control)	0 (less than 50% disease control)	0 (less than 50% disease control)	0 (less than 50% disease control)	1 (about 50-80% disease control)	0 (less than 50% disease control)
CCCCCCNC1COC2(CCC(C(C)(C)C)CC2)C1 (centres unmarked) [Compound 37]	0 (less than 50% disease control)	0 (less than 50% disease control)	1 (about 50-80% disease control)	0 (less than 50% disease control)	2 (greater than 80% disease control)	2 (greater than 80% disease control)	0 (less than 50% disease control)	1 (about 50-80% disease control)	0 (less than 50% disease control)	0 (less than 50% disease control)	0 (less than 50% disease control)
CCCCCCNC1COC2(CCC(C(C)(C)C)CC2)C1 (centres unmarked) [Compound 38]	0 (less than 50% disease control)	2 (greater than 80% disease control)	0 (less than 50% disease control)	0 (less than 50% disease control)	2 (greater than 80% disease control)	2 (greater than 80% disease control)	0 (less than 50% disease control)	2 (greater than 80% disease control)	1 (about 50-80% disease control)	0 (less than 50% disease control)	0 (less than 50% disease control)
CCCCCCNC1COC2(CCC(C(C)(C)C)CC2)C1 (centres unmarked) [Compound 39]	0 (less than 50% disease control)	2 (greater than 80% disease control)	0 (less than 50% disease control)	0 (less than 50% disease control)	2 (greater than 80% disease control)	2 (greater than 80% disease control)	0 (less than 50% disease control)	1 (about 50-80% disease control)	0 (less than 50% disease control)	0 (less than 50% disease control)	0 (less than 50% disease control)
CCCCCCNC1COC2(CCC(C(C)(C)C)CC2)C1 (centres unmarked) [Compound 40]	0 (less than 50% disease control)	2 (greater than 80% disease control)	0 (less than 50% disease control)	0 (less than 50% disease control)	2 (greater than 80% disease control)	2 (greater than 80% disease control)	0 (less than 50% disease control)	1 (about 50-80% disease control)	0 (less than 50% disease control)	0 (less than 50% disease control)	0 (less than 50% disease control)
CCCCCCNC1COC2(CCC(C(C)(C)C)CC2)C1 (centres unmarked) [Compound 41]	0 (less than 50% disease control)	0 (less than 50% disease control)	0 (less than 50% disease control)	1 (about 50-80% disease control)	2 (greater than 80% disease control)	2 (greater than 80% disease control)	0 (less than 50% disease control)	1 (about 50-80% disease control)	0 (less than 50% disease control)	0 (less than 50% disease control)	0 (less than 50% disease control)
CCCCCCCCCCNC1COC2(CCC(C(C)(C)C)CC2)C1 (centres unmarked) [Compound 42]	0 (less than 50% disease control)	0 (less than 50% disease control)	0 (less than 50% disease control)	0 (less than 50% disease control)	2 (greater than 80% disease control)	2 (greater than 80% disease control)	0 (less than 50% disease control)	1 (about 50-80% disease control)	0 (less than 50% disease control)	2 (greater than 80% disease control)	0 (less than 50% disease control)
CCCCCCCCCCCCNC1COC2(CCC(C(C)(C)C)CC2)C1 (centres unmarked) [Compound 43]	0 (less than 50% disease control)	0 (less than 50% disease control)	0 (less than 50% disease control)	2 (greater than 80% disease control)	2 (greater than 80% disease control)	2 (greater than 80% disease control)	0 (less than 50% disease control)	0 (less than 50% disease control)	0 (less than 50% disease control)	2 (greater than 80% disease control)	0 (less than 50% disease control)
CCCCCCCCCCCCCCNC1COC2(CCC(C(C)(C)C)CC2)C1 (centres unmarked) [Compound 44]	0 (less than 50% disease control)	0 (less than 50% disease control)	0 (less than 50% disease control)	0 (less than 50% disease control)	2 (greater than 80% disease control)	2 (greater than 80% disease control)	0 (less than 50% disease control)	0 (less than 50% disease control)	0 (less than 50% disease control)	0 (less than 50% disease control)	0 (less than 50% disease control)

Reference: patent US5591741A, “Fungicidal spiroheterocyclic derivatives” (American Cyanamid Company, priority 1993, dated 1997)
